Measured values taken from patent publication US10675286B2, “Heterocyclic compounds and uses thereof” (Infinity Pharmaceuticals, Inc., priority 2014, dated 2020).
“Also recorded” adds a separate entry of the source. Read-outs that look alike come from different tables or passages of the source.

Key:
[1] = system: GL-261 glioma; assay: GL-261 glioma model, Compound BB with or without temozolomide; format: in vivo, mouse; details: Compound BB 15 mg/kg QD PO, from start or following temozolomide, vs vehicle
Method: TMZ was dosed IP 1×/day for 7 days.
Animals: C57 Albino mice (male) from Jackson Labs, n=80. Parameters Evaluated:
In life: Mice were dosed QD with Compound BB. Temozolomide was dosed QD IP, for 7 days. Tumor measurements and bodyweights were taken 2×/week, but caliper and xenogen measurements.
End point analysis: Tumors were cut in half. One half was cut in half again with ½ fixed in 10% NBF the other was frozen in OCT for frozen sections. The remaining half was processed to single cell suspention and evaluated by FACS.
PD satellite group—8 mice from the TMZ treated mice and 8 mice from the vehicle treated mice were sacrificed on day 7 post treatment. Tumors were processed to single cell suspention and evaluated by FACS.

[2] = system: CXCL12 induced p-AKT in bone marrow derived macrophages; assay: CXCL12-induced p-AKT induction assay in differentiated, polarized macrophages; format: cell-based, mouse; details: Mus musculus, Macrophage
From the text: Long bones from young C57B6 mice were harvested and bone marrow was extruded by gentle lavage of the bone marrow cavities with a 28 gauge needle. Red blood cells were removed using red blood cell lysis buffer (Sigma). Bone marrow cells were differentiated to macrophages using MCSF for 6 days (RPMI and 20% FCS) with one media change (with removal of all non-adherent cells) at day 3. Macrophages were polarized into M0 (MCSF), M1 (MCSF, IFNγ, and LPS for 1 day), or M2 (MCSF, IL4 for 2 days).
Polarized macrophages were lifted with Acutase, and plated at 0.5M cells per well (0.5 ml) in a deep well (2 ml) non adherant plate in polarization media for 1 hour. […] CXCL12 was added, and the cells were mixed on a plate shaker for 2 minutes. 1 ml of 37 degree FACS Lyse/fix buffer (BD bioscience) was added and the plate was mixed for 1 minute. The plates were spun and decanted and frozen at −80° C. Phospho AKT staining with anti Phospho AKT 473 PERCP labeled (Cell Signaling Technologies) was performed and measured by flow cytometry. Total cell MFI was used to calculate the effect of tested compound on CXCL12 induction of phospho AKT.

[3] = system: Cytochrome P450 isoforms; assay: Cytochrome P450 inhibition (ADME characteristics, Table 25); format: in vitro ADME; details: main Cytochrome P450 isoforms
From the text: These properties indicate the compound's suitability for in vivo administration.

[4] = Tumor growth, Compound BB alone and with 5-FU (FIG. 35); format: in vivo
[5] = system: 4T1 mammary carcinoma; assay: 4T1 breast cancer model (orthotopic / subcutaneous), tumor growth and IHC; format: in vivo, mouse
Method: Plasma is collected for pharmokinetic (PK) analysis.
Luciferin measurements were taken twice a week.
Immunohistochemistry was performed to determine the distribution of immune cells within the tumor. In particular, CD11b myeloid cells were examined, as were regulatory vs. effector T cells (CD3, CD4, CD8, FoxP3).

[6] = system: differentiation of myeloid cells into M2 TAMs; assay: Murine M2 TAM differentiation (ARG1 levels); format: cell-based, mouse
From the text: High ARG1 (Arginase-1) levels indicate that myeloid cells are differentiating into M2 macrophages, so lower ARG1 levels relative to a control indicate interference with differentiation into M2 macrophages. Expression of Arginase-1 depletes the tumor microenvironment of arginine, thereby promoting T cell death and NK cell inhibition. Schmid et. al., Proceedings: AACR 103rd Annual Meeting 2012, Cancer Research: Apr. 15, 2012; Volume 72, Issue 8, Supplement 1. […] M2 TAMs promote cancer cell survival (FIG. 23).

[7] = system: Human hep; assay: Human hep viability (ADME characteristics, Table 25); format: cell-based
[8] = system: IL-8 induced neutrophil migration; assay: IL-8 driven murine air pouch model; format: in vivo; details: mouse; Compound BB 0.1, 0.3, 1, 3 mg/kg; Compound AA 10, 25, about 50 mg/kg; vs vehicle
From the text: IL-8 chemoattracts and activates neutrophils.

[9] = system: MC38 tumor cells; assay: MC38 colon cancer model; format: in vivo, mouse
Method: In this model, a syngeneic colon cancer cell line is run subcutaneously. The experimental setup was as follows.
The cell injection volume was 0.05 ml per mouse. When tumors reached an average size of 80-100 mm^3, a pair match was made and treatment began. The tumor was measured by caliper biweekly.
The dosing volume was 5 mL/kg.
For all animals, blood was collected by terminal cardiac puncture under isoflurane anesthesia. The blood was processed for plasma. In addition, tumor samples were collected.
At study end, tumors were isolated, fixed in 10% neutral buffered formalin and embedded in paraffin for histologic analysis. […] T-cells within the tumor sections were identified utilizing a CD3-specific antibody via automated immunohistochemistry equipment (Ventana). Once stained, slides were digitalized via Aperio slide scanning equipment. Next, stained tumor sections were quantified via Definians software to assess the percentage of CD3 positive cells within each tumor.

[10] = system: bone marrow cells differentiating into MDSCs; assay: Myeloid Derived Suppressor Cell differentiation assay (VEGF, ARG1); format: cell-based
Method: A similar experiment was performed on bone marrow cells differentiating into MDSCs.

[11] = system: spleen T cell proliferation; assay: Ex vivo T-cell proliferation assay with tumor-derived cells; format: cell-based; details: compared to tumor derived cells from vehicle treated mice
[12] = system: Myeloid Derived Suppressor Cell; assay: Myeloid Derived Suppressor Cell differentiation assay; format: cell-based
[13] = Target organ toxicity (TOT) study in rats, 10 days oral; format: in vivo
Method: A target organ toxicity (TOT) study was performed in rats. […] This study assessed clinical observations/mortality, body weights, clinical pathology, toxicokinetics, and histopathology of select tissues. The tissues studied were: Adrenal gland, Bone marrow (femur), Brain, Small Intestine (including GALT), Heart, Large Intestine, Kidney, Stomach, Liver, Pancreas, Spleen, Testis, and Thymus. Doses were selected based on repeat-dose tolerability study, PK and plasma protein binding, and cellular IC50s for PI3K isoforms.

[14] = Oral pharmacokinetics of Compound BB in monkey; format: in vivo; details: 5 mg/kg oral
From the text: Compound BB's oral exposure is high in rat, dog and monkey. Good oral bioavailability and low clearance in rodent and non-rodent animal species results in high oral exposure.

[15] = Pharmacokinetics of Compound BB, single and repeat oral dose in CB6F1 female mice; format: in vivo, mouse; details: CB6F1 female mice, 2, 7.5, 15 mg/kg PO
Method: Animals were weighed daily prior to dosing. […] On subsequent dosing days, the animals' condition was noted prior to dosing; the animals were observed within 4 hours of dosing, and at the end of the day.
Samples were collected at pre-dose 0.25, 0.5, 1, 2, 4, 6 and 24 h following the first dose on day 1 and pre-dose (trough), 0.25, 0.5, 1, 2, 4, 6 and 24 h following the final dose on day 3. Animals received a single oral dose daily for 3 consecutive days. Blood was collected by retro-orbital bleeding for all time points on day 1. All other blood sampling was collected by a cardiac puncture. Blood was collected into K2EDTA tubes and placed on wet ice. Within 15 min of collection, the sample was centrifuged at 10,000 rpm at 4° C. for 10 min in a bench top centrifuge and the plasma transferred to a new microcentrifuge tube.

[16] = system: M2 macrophage markers; assay: M2 macrophage marker expression with or without PDL-1 antibody (FIG. 42); format: in vivo
[17] = orthotopic 4T1, 7.5 mg/kg PO once daily 3 weeks

For `C[C@H](NC(=O)c1c(N)nn2cccnc12)c1cc2cccc(C#Cc3cnn(C)c3)c2c(=O)n1-c1ccccc1` [Compound BB], the “Tumor volume (FIGS. 53, 54)” value [1] was “effective in reducing the tumor volume; also recorded: significant reduction in tumor volume”, the IC50 ([2]; read-out: IC50, CXCL12 induced p-AKT, differentiated and M1 polarized macrophage) was about 14 nM and the IC50 ([2]; read-out: IC50, CXCL12 induced p-AKT, differentiated and M2 polarized macrophage) was about 8.4 nM. For the same compound, the CYP inhibition [3] was “does not substantially inhibit CYP; also recorded: low potential for reversible inhibition”, the tumor growth ([4]; Compound BB alone) was “reduction in tumor growth” and the tumor growth ([4]; co-administration of Compound BB and 5-FU) was “further reduction”. For the same compound, the “Tumor growth (FIG. 35)” value ([5]; 4T1, Compound BB alone 15 mg/kg once daily 2 weeks) was “achieved a reduction in tumor growth”, the “CD11b+ myeloid cell staining in viable tumor regions (IHC, FIG. 37A)” value ([5]; 4T1 tumors, day 13, vs vehicle) was “decrease in CD11b+ myeloid cell staining” and the “Total luciferase flux (FIG. 33B)” value [5, 17] was “reduced total luciferase flux”. For the same compound, the “Tumor growth (FIG. 33A)” value [5, 17] was “reduced tumor growth”, the “Time the anti-tumor effect was maintained after discontinuation of treatment” value ([5]; subcutaneous 4T1) was “at least 6 days” and the “Tumor growth (FIG. 34, FIG. 36)” value ([5]; subcutaneous 4T1, single agent) was “demonstrated single agent activity”. For the same compound, the “Differentiation of myeloid cells into M2 TAMs (ARG1 levels, FIG. 22)” value [6] was “inhibited M2 TAM differentiation much more effectively than PI3K-δ inhibitor”, the IC50 [7] was 10000 to 25000 nM and the “IL-8 induced neutrophil migration into air pouch” value [8] was “blocks IL-8 induced neutrophil migration”. The “Tumor growth (FIG. 29A)” value ([9]; MC38, monotherapy) was “significantly inhibited tumor growth”, the “Intratumoral CD3+ T cells (FIG. 30)” value ([9]; MC38 tumors, vs vehicle) was “significantly more intratumoral CD3+ T cells” and the “VEGF and ARG1 in MDSC differentiation assay (FIG. 24)” value [10] was “suppressed both VEGF (FIG. 24A) and ARG1 (FIG. 24B)”. The “inhibition of spleen T cell proliferation by cells isolated from tumors of treated mice” value [11] was “less inhibitory”, the ARG1 [12] was “suppresses” and the VEGF [12] was “suppresses”. The “Histopathology, gross changes” value ([13]; 10 days) was “no significant gross changes were observed”, the “Decrease in body weights compared to vehicle” value ([13]; high dose (50 mg/kg/day), 10 days) was 5-8% and the “Histopathology, thymus” value ([13]; males at ≥7.5 mg/kg/day, females at 50 mg/kg/day) was “minimal/mild lymphoid depletion”. For the same compound, the “Mortality and clinical signs” value ([13]; oral 10 days, any dose level) was “No mortality or clinical signs were observed”, the Tolerability ([13]; oral, 1, 7.5, 20, 50 mg/kg/day) was “well-tolerated for 10 days” and the “Histopathology, spleen” value ([13]; primarily at doses ≥20 mg/kg/day) was “minimal/mild lymphoid depletion of the marginal zone and periarteriolar lymphoid sheaths (PALS)”. For the same compound, the Clinical pathology ([13]; primarily in 20 and 50 mg/kg/day groups) was “minimal changes in neutrophils, lymphocytes, and fibrinogen”, the “Oral exposure (plasma concentrations within 24 hours, FIG. 43)” value [14] was “high” and the “Stability in serum (24-hour time course of unbound plasma concentration)” value [15] was “good stability in serum”. For the same compound, the “M2 macrophage marker ARG-1” value [16] was “reduced” and the “M2 macrophage marker VEGF” value [16] was “reduced”.
